Experimental data from publication PMC2650103 (Journal of medicinal chemistry, 2008).
Read-outs that look alike come from different tables or passages of the source.

Columns and labels:
[1] = tested on: vaccinia virus WR in BS-C-1 cells; assay type: cell-based
BS-C-1 cells = conditions: African green monkey
[2] = Solubility in cell growth medium by light scattering; conditions: at the EC50 / over the range of concentrations used in the activity assays
[3] = tested on: vaccinia virus WR in BS-C-1 cells; experiment: microbe, parasite or virus in culture; assay type: cell-based; conditions: Orthopoxvirus vaccinia, BSC-1, 20 h, read-out: Cell Prot EC50
[4] = cited from earlier work
[5] = tested on: vaccinia virus WR in BS-C-1 cells; experiment: microbe, parasite or virus in culture; assay type: cell-based; conditions: Orthopoxvirus vaccinia, BSC-1, 20 h, read-out: Plaque Red EC50
[6] = tested on: multiple orthopoxviruses, including two strains of variola virus; conditions: cited from earlier work

SMILES | Trapped by dsDNA [1] | Tox 72 h TC50 (BS-C-1 cells) | Tox 120 h TC50 (BS-C-1 cells) | Solubility in cell growth medium [2] | EC50 [3] | Toxicity on intravenous administration [4] | EC50 [5] | Growth of orthopoxviruses in cell cultures [6]
Cc1cc(/N=C/c2cc(Cl)cc(Cl)c2O)no1 [Compound 6] | No | 50 ∞M | 20 ∞M |  |  |  |  | 
CCOC(=O)c1c(NC(=O)/C=C/C(=O)O)sc(C)c1-c1ccccc1 [Compound 2] | No |  |  |  |  |  |  | 
CCS(=O)(=O)N1CCN=C1SCc1ccc(Cl)cc1Cl [Compound 10] | No |  |  | just slightly insoluble |  |  |  | 
Cc1ccc2c(Sc3ccc(Cl)cc3)c(C(=O)O)[nH]c2c1 [Compound 11] | No | 174 ∞M | 120 ∞M |  | 130 µM |  |  | 
CCNc1nc(SCc2ccc(Cl)cc2)nc2sc3c(c12)CCN(C)C3 [Compound 5] | No |  | 5 ∞M |  |  |  |  | 
Cc1csc2c(N3CCN(C(=O)NC(C)(C)C)CC3)ncnc12 [Compound 4] | No |  | 40 ∞M |  |  |  |  | 
COC(=O)c1cccc2c1-c1ccccc1/C2=N\O [Compound 1] | No |  | 20 ∞M |  |  |  |  | 
Nc1ccn(C[C@@H](CO)OCP(=O)(O)O)c(=O)n1.O.O [CDV, (S)-1-(3-hydroxy-2-phosphonylmethoxypropyl)cytosine, reference compound] | No | >500 ∞M | 300 ∞M |  | 132 µM | nephrotoxicity |  | 
O=C(O)Cn1c2ccc(Cl)cc2c2nc3ccccc3nc21 [Compound 13] | No | 13 ∞M | 30 ∞M | just slightly insoluble |  |  |  | 
N=C1/C(=C/c2coc3ccccc3c2=O)C(=O)N=C2SC=NN12 [Compound 14] | No | >200 ∞M | 50 ∞M |  | 188 µM |  | 150 µM | 
O=C(NN1C(=O)C2C3C=CC(C4CC34)C2C1=O)c1ccc(C(F)(F)F)cc1 (stereo not drawn) [Compound 30, 4-trifluoromethyl-N-(3,3a,4,4a,5,5a,6,6a-octahydro-1,3-dioxo-4,6-ethenocycloprop[f]isoindol-2(1H)-yl)-benzamide] |  |  |  |  |  |  |  | inhibit the growth
O=C1/C(=C/C2CCCO2)CC/C1=C\C1CCCO1 (stereo not drawn) [Compound 16] | No | >100 ∞M | 50 ∞M | just slightly insoluble |  |  |  | 
CC(=O)n1c2ccccc2c2nc(C)sc21 [Compound 15] | No | >200 ∞M | 75 ∞M |  | 236 µM |  |  | 
CCn1c2ccccc2c2ccc(/C=N/n3cnnc3)cc21 [Compound 3] | No | 36 ∞M | 3 ∞M |  |  |  |  | 
N=C1S/C(=C/c2ccco2)C(=O)N1c1nccs1 [Compound 12] | No | >100 ∞M | 50 ∞M | just slightly insoluble |  |  |  | 
Cc1c(/N=C/c2cc(Br)cc(Br)c2O)cccc1C(=O)O [Compound 7] | No | 38 ∞M | 20 ∞M |  |  |  |  | 
Cc1cc(OC(=O)c2ccco2)nc(SCc2c(Cl)cccc2Cl)n1 [Compound 8] | No | >100 ∞M | >100 ∞M | just slightly insoluble |  |  |  | 
O=C(Nc1ccccc1C(=O)O)OCC1c2ccccc2-c2ccccc21 [Compound 9] | No | 40 ∞M | 20 ∞M |  | 104 µM |  |  | 
